Results as given in ChEMBL document CHEMBL2440076, “New triarylpyrazoles as broad-spectrum anticancer agents: design, synthesis, and biological evaluation” (Eur J Med Chem, 2013).

Key:
[1] = Growth inhibition of human Hs 578T cells after 48 hrs by sulforhodamine B assay; type: functional
KM12 = assay: Growth inhibition of human KM12 cells after 48 hrs by sulforhodamine B assay; type: functional, cell-based; details: KM12, 48 h
HCT-15 = assay: Growth inhibition of human HCT15 cells assessed as cell growth at 10 uM after 48 hrs by sulforhodamine B assay; type: functional; details: HCT-15, 48 h, read-out: Activity
HOP-92 [2] = assay: Growth inhibition of human HOP92 cells after 48 hrs by sulforhodamine B assay; type: functional, cell-based; details: HOP-92, 48 h
MDA-MB-468 [3] = assay: Growth inhibition of human MDA-MB-468 cells assessed as cell growth at 10 uM after 48 hrs by sulforhodamine B assay; type: functional; details: MDA-MB-468, 48 h, read-out: Activity
SK-MEL-2 [4] = assay: Growth inhibition of human SK-MEL-2 cells assessed as cell growth at 10 uM after 48 hrs by sulforhodamine B assay; type: functional; details: SK-MEL-2, 48 h, read-out: Activity
SNB-19 = assay: Growth inhibition of human SNB19 cells assessed as cell growth at 10 uM after 48 hrs by sulforhodamine B assay; type: functional; details: SNB-19, 48 h, read-out: Activity
TK-10 [5] = assay: Growth inhibition of human TK10 cells after 48 hrs by sulforhodamine B assay; type: functional; details: TK-10, 48 h
IGROV-1 = assay: Growth inhibition of human IGROV1 cells assessed as cell growth at 10 uM after 48 hrs by sulforhodamine B assay; type: functional; details: IGROV-1, 48 h, read-out: Activity
SK-MEL-2 [6] = assay: Growth inhibition of human SK-MEL-2 cells after 48 hrs by sulforhodamine B assay; type: functional; details: SK-MEL-2, 48 h
K562 [7] = assay: Growth inhibition of human K562 cells after 48 hrs by sulforhodamine B assay; type: functional; details: K562, 48 h
NCI-H460 = assay: Growth inhibition of human NCI-H460 cells assessed as cell growth at 10 uM after 48 hrs by sulforhodamine B assay; type: functional; details: NCI-H460, 48 h, read-out: Activity
MDA-MB-231 = assay: Growth inhibition of human MDA-MB-231 cells assessed as cell growth at 10 uM after 48 hrs by sulforhodamine B assay; type: functional; details: MDA-MB-231, 48 h, read-out: Activity
HOP-92 [8] = assay: Growth inhibition of human HOP92 cells assessed as cell growth at 10 uM after 48 hrs by sulforhodamine B assay; type: functional; details: HOP-92, 48 h, read-out: Activity
K562 [9] = assay: Growth inhibition of human K562 cells assessed as cell growth at 10 uM after 48 hrs by sulforhodamine B assay; type: functional; details: K562, 48 h, read-out: Activity
DU-145 = assay: Growth inhibition of human DU145 cells after 48 hrs by sulforhodamine B assay; type: functional; details: DU-145, 48 h
[10] = Growth inhibition of human HCC2998 cells assessed as cell growth at 10 uM after 48 hrs by sulforhodamine B assay; type: functional; details: HCC 2998, 48 h, read-out: Activity
LOX IMVI = assay: Growth inhibition of human LOXIMVI cells after 48 hrs by sulforhodamine B assay; type: functional
MCF7 = assay: Growth inhibition of human MCF7 cells after 48 hrs by sulforhodamine B assay; type: functional; details: MCF7, 48 h
T47D = assay: Growth inhibition of human T47D cells after 48 hrs by sulforhodamine B assay; type: functional
SN12C = assay: Growth inhibition of human SN12C cells after 48 hrs by sulforhodamine B assay; type: functional
HL-60(TB) = assay: Growth inhibition of human HL-60(TB) cells after 48 hrs by sulforhodamine B assay; type: functional; details: HL-60, 48 h
A549 [11] = assay: Growth inhibition of human A549/ATCC cells after 48 hrs by sulforhodamine B assay; type: functional; details: A549, 48 h
CCRF-CEM = assay: Growth inhibition of human CCRF-CEM cells assessed as cell growth at 10 uM after 48 hrs by sulforhodamine B assay; type: functional; details: read-out: Activity
SNB-75 = assay: Growth inhibition of human SNB75 cells after 48 hrs by sulforhodamine B assay; type: functional; details: SNB-75, 48 h
A549 [12] = assay: Growth inhibition of human A549/ATCC cells assessed as cell growth at 10 uM after 48 hrs by sulforhodamine B assay; type: functional; details: A549, 48 h, read-out: Activity
OVCAR-3 = assay: Growth inhibition of human OVCAR3 cells after 48 hrs by sulforhodamine B assay; type: functional, cell-based; details: OVCAR-3, 48 h
NCI-H226 = assay: Growth inhibition of human NCI-H226 cells after 48 hrs by sulforhodamine B assay; type: functional; details: NCI-H226, 48 h
TK-10 [13] = assay: Growth inhibition of human TK10 cells assessed as cell growth at 10 uM after 48 hrs by sulforhodamine B assay; type: functional; details: TK-10, 48 h, read-out: Activity
RPMI-8226 = assay: Growth inhibition of human RPMI8226 cells after 48 hrs by sulforhodamine B assay; type: functional, cell-based; details: RPMI-8226, 48 h
NCI-H322M = assay: Growth inhibition of human NCI-H322M cells after 48 hrs by sulforhodamine B assay; type: functional
RXF 393 = assay: Growth inhibition of human RXF393 cells assessed as cell growth at 10 uM after 48 hrs by sulforhodamine B assay; type: functional; details: RXF 393, 48 h, read-out: Activity
Malme-3M = assay: Growth inhibition of human MALME-3M cells assessed as cell growth at 10 uM after 48 hrs by sulforhodamine B assay; type: functional; details: read-out: Activity
MDA-MB-468 [14] = assay: Growth inhibition of human MDA-MB-468 cells after 48 hrs by sulforhodamine B assay; type: functional, cell-based; details: MDA-MB-468, 48 h
[15] = read-out: LC50 (the source's name)

For COc1cc(-c2nn(-c3cccc(NC(=O)c4ccc(N5CCOCC5)c(C(F)(F)F)c4)c3)cc2-c2ccncc2)ccc1Cl, the GI50 [1] was 0.262 µM, the TGI [1] was > 100 µM and the CC50 [1, 15] was > 100 µM. The GI50 (KM12) was 0.248 µM, the IC50 (KM12) was 0.25 µM and the TGI (KM12) was 6.6 µM. For the same compound, the CC50 (KM12; [15]) was > 100 µM, the growth at 10 µM (HCT-15) was 16.7% and the GI50 (HOP-92 [2]) was 0.124 µM. For the same compound, the IC50 (HOP-92 [2]) was 0.12 µM, the LC50 (HOP-92 [2]) was > 100 µM and the TGI (HOP-92 [2]) was 0.813 µM. For the same compound, the growth at 10 µM (MDA-MB-468 [3]) was -37.8%, the growth at 10 µM (SK-MEL-2 [4]) was -8.84% and the growth at 10 µM (SNB-19) was 45.1%. The GI50 (TK-10 [5]) was 1.49 µM, the TGI (TK-10 [5]) was 45.3 µM and the CC50 (TK-10 [5]; [15]) was > 100 µM. For the same compound, the growth at 10 µM (IGROV-1) was 41.8%, the GI50 (SK-MEL-2 [6]) was 0.291 µM and the LC50 (50% lethal concentration) (SK-MEL-2 [6]) was > 100 µM. For the same compound, the TGI (SK-MEL-2 [6]) was 8.24 µM, the GI50 (K562 [7]) was 0.0499 µM and the TGI (K562 [7]) was > 100 µM. For the same compound, the CC50 (K562 [7]; [15]) was > 100 µM, the growth at 10 µM (NCI-H460) was 5.02% and the growth at 10 µM (MDA-MB-231) was -25.2%. The growth at 10 µM (HOP-92 [8]) was 11.5%, the growth at 10 µM (K562 [9]) was 1.22% and the GI50 (DU-145) was 0.388 µM. For the same compound, the LC50 (DU-145) was > 100 µM, the TGI (DU-145) was > 100 µM and the growth at 10 µM [10] was 8.82%. For the same compound, the GI50 (LOX IMVI) was 0.371 µM, the LC50 (LOX IMVI) was > 100 µM and the TGI (LOX IMVI) was 6.2 µM. For the same compound, the GI50 (MCF7) was 0.285 µM, the LC50 (MCF7) was > 100 µM and the TGI (MCF7) was > 1 µM. The GI50 (T47D) was 0.686 µM, the TGI (T47D) was > 100 µM and the CC50 (T47D; [15]) was > 100 µM. The GI50 (SN12C) was 1.09 µM, the TGI (SN12C) was > 100 µM and the CC50 (SN12C; [15]) was > 100 µM. The GI50 (HL-60(TB)) was 0.298 µM, the TGI (HL-60(TB)) was > 100 µM and the CC50 (HL-60(TB); [15]) was > 100 µM. The GI50 (A549 [11]) was 0.315 µM, the LC50 (concentration killing 50% of starting cells) (A549 [11]) was > 100 µM and the TGI (A549 [11]) was > 100 µM. For the same compound, the growth at 10 µM (CCRF-CEM) was 0.91%, the GI50 (SNB-75) was 0.212 µM and the LC50 (lethal concentration, 50% net cell kill) (SNB-75) was > 100 µM. It also gave a growth at 10 µM (A549 [12]) of 3.58%, a GI50 (OVCAR-3) of 0.222 µM and an IC50 (OVCAR-3) of 0.22 µM. The TGI (OVCAR-3) was 1.03 µM, the CC50 (OVCAR-3; [15]) was > 100 µM and the GI50 (NCI-H226) was 0.427 µM. For the same compound, the TGI (NCI-H226) was > 100 µM, the CC50 (NCI-H226; [15]) was > 100 µM and the growth at 10 µM (TK-10 [13]) was 17.8%. For the same compound, the GI50 (RPMI-8226) was 0.339 µM, the IC50 (RPMI-8226) was 0.34 µM and the TGI (RPMI-8226) was > 100 µM. For the same compound, the CC50 (RPMI-8226; [15]) was > 100 µM, the GI50 (NCI-H322M) was 0.603 µM and the TGI (NCI-H322M) was 94.4 µM. The CC50 (NCI-H322M; [15]) was > 100 µM, the growth at 10 µM (RXF 393) was -45.2% and the growth at 10 µM (Malme-3M) was 36.2%. The GI50 (MDA-MB-468 [14]) was 0.183 µM, the IC50 (MDA-MB-468 [14]) was 0.18 µM and the TGI (MDA-MB-468 [14]) was 0.781 µM. The CC50 (MDA-MB-468 [14]; [15]) was 5.53 µM.
